For data set [1] the following is noted: Table 5; cited from earlier work.
In data set [2] the test system is human embryoid bodies (hEB). Description: Cytotoxicity in human embryoid bodies, day 15 (MTT / CyQUANT). To be noted: for IC50: Homo sapiens. Here is the method:
In general, the presently disclosed embryotoxicity testing protocols comprise the following sequence of steps. Studies using embryoid bodies generally comprise: a) preparation of various concentrations of test solutions in culture medium or a desired solvent; b) preparation of a cell suspension by enzymatic digestion of human embryonic stem cell colonies; c) culturing the cell suspension for formation of embryoid bodies in the presence and absence of one or more test solutions, and incubation for several days (e.g., three days) in hanging drops; d) cultivation of the embryoid bodies in bacteriological petri dishes for several days (e.g., two days) under controlled conditions; e) transfer of the embryoid bodies into 96 well plates and incubation for several days (e.g., 10 days) in the presence of one or more test solutions; and f) detection of the viability of the embryoid bodies after 15 days by MTT assay, or fluorescent or luminescent method, and isolation of RNA for studying gene expression. Studies using human foreskin fibroblasts (HFF) generally comprise: a) preparation of various concentrations of test solutions in culture medium or a desired solvent; b) plating of HFF cells in 96 well plates in the presence or absence of one or more test solutions for 15 days, changing the media and test solutions every 2 days; and c) detection of the viability of HFF after 15 days by MTT assay, or fluorescent or luminescent method. Studies using human embryonic stem cells generally comprise: a) preparation of various concentrations of test solutions in culture medium or a desired solvent; b) preparation of hES colonies by manual passage in the presence and absence of one or more test solutions, and incubation for 15 days on matrigel coated plates changing the media and test solutions every 2 days; c) disruption of the colonies after 15 days with enzymes to form single cells; d) labeling of single cells with a fluorescently-labeled dye, such as propidium iodide (“PI”); and e) detection of the percentage viability with FACS as a measure of cytotoxicity.
The culturing of the cell suspension is done by dispensing about ¼ of the cell suspension along with test chemicals on the inner side of a 100 mm bacteriological petri dish. Around 50-80 drops are dispensed for each concentration, the untreated control, and the solvent control. The lid is turned carefully into its regular position and is put on top of a petri dish containing 5 ml of phosphate buffered saline (“PBS”). The “hanging drops” are incubated for three days in a humidified atmosphere with 5% CO2 at 37° C.
On day 3, 5 ml of freshly prepared test solution is added to the lid of the “hanging drops” petri dish. The embryoid bodies are carefully transferred from the lid of the “hanging drops” petri dish to a 60 mm bacteriological petri dish. The suspension is cultivated for two days in a humidified atmosphere with 5% CO2 at 37° C.
On the 5th day, the EBs are transferred into 96 well plates by placing 10 EBs in each well. About 150 μl of freshly prepared test solution is added to each well, and three wells are used for each concentration. The 96 well plates are incubated for […] in a humidified atmosphere with 5% CO2 at 37° C. The remaining EBs are plated on a 24 well plate coated with 0.2% gelatin and allowed to differentiate. Media was replaced every second day until day 15.
On the 15th day, an MTT assay is performed. MTT solution (5 mg/ml) is prepared in culture medium containing test chemical. The MTT solution is added to all wells and incubated at 37° C. in a humidified atmosphere of 5% CO2 for 4 hours, after which the MTT desorb solution (acidified isopropanol) is added to each well. The plate is shaken on a micrometer plate for 15 minutes to dissolve the formazan. The absorbance is measured at 550-570 nm in a microtiter plate reader using 630 nm as a reference wavelength.

Data set [3] relates to human embryoid bodies (hEBs). Put plainly: Morphological evaluation of embryoid bodies (photomicrographs). The data set is classed as cell-based. The settings on record: day 7 hEBs; FIG. 4A-4D. The method, then:
Hanging drops were made in hES media with LIF and bFGF for calculating IC50-hES cells, and in hES media without LIF and bFGF (hEB media) for the formation of EBs. On day 3 the hES colonies were collected along with the respective test compound concentration, whereas the hEBs were collected and transferred to 60 mm bacteriological petri plates for another 2 days. Morphology of the EBs was monitored under the microscope for the formation of EBs. On day 5 the hEBs were plated in a 96 well plate for MTT, as well as on a 6 well plate for RNA extraction. The media along with the appropriate test compound concentration was replaced in the 96 well and 6 well plates on days 7, 9, 11, and 13. On day 15, MTT was performed on the hES plate and the differentiated EBs. RNA was extracted from all the concentrations of 5-fluorouracil, and 1 μg of RNA was converted to cDNA to perform RT-PCR, real time PCR, or TLDA.

Another data set concerns mouse ES cells. To be noted: Table 4; from the EST (Genschow, et al., 2000); cited from earlier work.
Data set [4] concerns human embryonic stem cells (hES). Description: Cytotoxicity in undifferentiated human embryonic stem cells, day 15 (FACS with PI / CyQUANT). The format is cell-based. The settings on record: Homo sapiens, Embryonic stem cell. Here is the method:
In general, the presently disclosed embryotoxicity testing protocols comprise the following sequence of steps. Studies using embryoid bodies generally comprise: a) preparation of various concentrations of test solutions in culture medium or a desired solvent; b) preparation of a cell suspension by enzymatic digestion of human embryonic stem cell colonies; c) culturing the cell suspension for formation of embryoid bodies in the presence and absence of one or more test solutions, and incubation for several days (e.g., three days) in hanging drops; d) cultivation of the embryoid bodies in bacteriological petri dishes for several days (e.g., two days) under controlled conditions; e) transfer of the embryoid bodies into 96 well plates and incubation for several days (e.g., 10 days) in the presence of one or more test solutions; and f) detection of the viability of the embryoid bodies after 15 days by MTT assay, or fluorescent or luminescent method, and isolation of RNA for studying gene expression. Studies using human foreskin fibroblasts (HFF) generally comprise: a) preparation of various concentrations of test solutions in culture medium or a desired solvent; b) plating of HFF cells in 96 well plates in the presence or absence of one or more test solutions for 15 days, changing the media and test solutions every 2 days; and c) detection of the viability of HFF after 15 days by MTT assay, or fluorescent or luminescent method. Studies using human embryonic stem cells generally comprise: a) preparation of various concentrations of test solutions in culture medium or a desired solvent; b) preparation of hES colonies by manual passage in the presence and absence of one or more test solutions, and incubation for 15 days on matrigel coated plates changing the media and test solutions every 2 days; c) disruption of the colonies after 15 days with enzymes to form single cells; d) labeling of single cells with a fluorescently-labeled dye, such as propidium iodide (“PI”); and e) detection of the percentage viability with FACS as a measure of cytotoxicity. […]
After 2 hours incubation, 150 μl of assay medium containing the appropriate concentration of test chemical (150 μl volume contains 1.333× the final chemical concentration) was added. Appropriate blanks without the chemicals were used along with the test samples The cell cultures were incubated at 5% CO2 and 37° C. for 3 days. On day 3, test solution was removed with the care, so that the cell layer on the bottom of the wells was not disturbed. Next, 200 μl of freshly prepared test solution (final concentration/well as on day 0) was added, and the cell cultures were incubated at 5% CO2 and 37° C. for 3 days. This process was repeated on days 6, 9, and 12. Determination of cell growth inhibition was performed at day 15 of the assay using MTT reagent. Cytotoxicity for hES cells was calculated using flow cytometry. Briefly, cells were placed on matrigel coated plates along with different test compound concentrations. Media was replaced every 3 days along with the different test compound concentrations. At day 15, hES cells were collected by trypsinization, and after washing with PBS, the cells were incubated with PI for 10 minutes in the dark. Percent viability for various test compound concentrations was calculated using flow cytometry.
Cytotoxicity analysis of three cell types (hES, hEBs and HFF) was evaluated using the CyQUANT assay following compound treatment. All data were the mean of three independent experiments for each cell type. Data is represented as the mean±SE.

Data set [5] has as its system 3T3 (mouse fibroblast cell line). The settings on record: Table 4; from the EST (Genschow, et al., 2000); cited from earlier work.

Values after ≈ are worked out from the molar mass of the structure shown. Like-named read-outs stand apart in the source and are kept apart here.

In the case of `O=C1NS(=O)(=O)c2ccccc21` [Saccharin, saccharin], the General toxicity entry in data set [1] is “Obesity”. For the same molecule, the IC50 in data set [2] (360 h, read-out: IC50-hEB) turned out to be 1550 ± 34.5 µg/mL (≈ 8.44 mM); in data set [2] (read-out: IC50-hEBs), 1550 µg/mL (≈ 8.44 mM); in data set [4] (360 h, Table 3, mean of 3 experiments, day 15, read-out: IC50-hES) it was 1920 ± 22.5 µg/mL (≈ 10.5 mM); in data set [4] (Table 4, CyQuant cell viability assay, read-out: Human EST IC50 - hES), 1920 ± 22.5 µg/mL (≈ 10.5 mM). Moreover, the cell survival entry in data set [2] (hEBs, 1000 μg/ml, CyQUANT, FIG. 4A/4B) was “about 60%”. Further, in data set [3], the “concentration required to elicit a similar morphological response (loss of compactness, decreased EB size)” value was found to be 5000 μg/ml. In the data set with mouse ES cells, the “Mouse EST IC50 - mES” value is 3498 µg/mL. In data set [5], the “Mouse EST IC50 - 3T3” value is 3000 µg/mL.

What is called IC50 is the midpoint of a concentration-inhibition curve.

Source of the values: patent US20090220996A1, “In vitro Assay Methods for Classifying Embryotoxicity of Compounds” (RELIANCE LIFE SCIENCES PVT LTD., priority 2007, published 2009).
